Experimental data published in patent US20260250318A1, “COMPOSITIONS AND METHODS FOR CROSSING THE BLOOD BRAIN BARRIER” (VOYAGER THERAPEUTICS, INC., priority 2022, published 2026).

How the values were obtained:
Details in all cases: synthetic library passage 3, intravenous, relative to wild-type AAV9
brain [1] = experiment: NGS fold enrichment of synthetic library (passage 3) in C57Bl/6 mice, first cross-species screen; assay type: in vivo
Summary of the method: (§1)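 Fold enrichment versus wild-type AAV9 was derived by NGS of RT-PCR-amplified RNA from nervous tissue, collected e.g. 28 days after IV dosing […]. The library (passage 3) was given to two NHPs aged 2-4 years and to 6-8-week BALB/c and C57Bl/6 mice (n=3 each).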

brain [2] = experiment: NGS fold enrichment of synthetic library (passage 3) in BALB/c mice, first cross-species screen; assay type: in vivo
Summary of the method: as §1

[3] = test system: brain, spinal cord, and DRG of the NHPs; experiment: NGS fold enrichment of synthetic library (passage 3) in NHPs, first cross-species screen; assay type: in vivo, cynomolgus macaques (Macaca fascicularis)
Summary of the method: as §1

[4] = RNA from brain of C57Bl/6 mice, NGS
[5] = RNA from brain of BALB/c mice, NGS
[6] = RNA from spinal cord of NHPs, NGS

Sequence: GSGGTSVHQQNQQT
- Fold enrichment over AAV9 in the brain of Mice (C57Bl/6) (brain [1]; RNA NGS, brain of C57Bl/6 mice): 0.585 fold
- Fold enrichment over AAV9 in the brain of Mice (BALB/c) (brain [2]; RNA NGS, brain of BALB/c mice): 0.195 fold
- Fold enrichment over AAV9 in the brain of NHPs ([3]; RNA NGS, brain of NHPs): 1.629 fold
- Fold enrichment over AAV9 in the spinal cord of NHPs ([3]; RNA NGS, spinal cord of NHPs): 0.000 fold

Sequence: GSGGVTYQSQNQQT
- Fold enrichment over AAV9 in the brain of Mice (C57Bl/6) (brain [1]; RNA NGS, brain of C57Bl/6 mice): 0.649 fold
- Fold enrichment over AAV9 in the brain of Mice (BALB/c) (brain [2]; RNA NGS, brain of BALB/c mice): 0.181 fold
- Fold enrichment over AAV9 in the brain of NHPs ([3]; RNA NGS, brain of NHPs): 1.673 fold
- Fold enrichment over AAV9 in the spinal cord of NHPs ([3]; RNA NGS, spinal cord of NHPs): 7.283 fold

Sequence: GSGHAAISQQNQQT
- Fold enrichment over AAV9 in the brain of Mice (C57Bl/6) (brain [1]; RNA NGS, brain of C57Bl/6 mice): 1.211 fold
- Fold enrichment over AAV9 in the brain of Mice (BALB/c) (brain [2]; RNA NGS, brain of BALB/c mice): 0.520 fold
- Fold enrichment over AAV9 in the brain of NHPs ([3]; RNA NGS, brain of NHPs): 1.742 fold
- Fold enrichment over AAV9 in the spinal cord of NHPs ([3]; RNA NGS, spinal cord of NHPs): 2.373 fold

Sequence: GSGHAKAVGQNQQT
- Fold enrichment over AAV9 in the brain of Mice (C57Bl/6) (brain [1]; RNA NGS, brain of C57Bl/6 mice): 0.703 fold
- Fold enrichment over AAV9 in the brain of Mice (BALB/c) (brain [2]; RNA NGS, brain of BALB/c mice): 0.824 fold
- Fold enrichment over AAV9 in the brain of NHPs ([3]; RNA NGS, brain of NHPs): 1.081 fold
- Fold enrichment over AAV9 in the spinal cord of NHPs ([3]; RNA NGS, spinal cord of NHPs): 4.357 fold

Sequence: GSGHGQVLSQNQQT
- Fold enrichment over AAV9 in the brain of Mice (C57Bl/6) (brain [1]; RNA NGS, brain of C57Bl/6 mice): 1.880 fold
- Fold enrichment over AAV9 in the brain of Mice (BALB/c) (brain [2]; RNA NGS, brain of BALB/c mice): 0.661 fold
- Fold enrichment over AAV9 in the brain of NHPs ([3]; RNA NGS, brain of NHPs): 2.213 fold
- Fold enrichment over AAV9 in the spinal cord of NHPs ([3]; RNA NGS, spinal cord of NHPs): 12.133 fold

Sequence: GSGHIYVGIQNQQT
- Fold enrichment over AAV9 in the brain of Mice (C57Bl/6) (brain [1]; RNA NGS, brain of C57Bl/6 mice): 0.989 fold
- Fold enrichment over AAV9 in the brain of Mice (BALB/c) (brain [2]; RNA NGS, brain of BALB/c mice): 0.337 fold
- Fold enrichment over AAV9 in the brain of NHPs ([3]; RNA NGS, brain of NHPs): 2.178 fold
- Fold enrichment over AAV9 in the spinal cord of NHPs ([3]; RNA NGS, spinal cord of NHPs): 6.428 fold

Sequence: GSGHLFQSGQNQQT
- Fold enrichment over AAV9 in the brain of Mice (C57Bl/6) (brain [1]; RNA NGS, brain of C57Bl/6 mice): 0.751 fold
- Fold enrichment over AAV9 in the brain of Mice (BALB/c) (brain [2]; RNA NGS, brain of BALB/c mice): 0.386 fold
- Fold enrichment over AAV9 in the brain of NHPs ([3]; RNA NGS, brain of NHPs): 1.057 fold
- Fold enrichment over AAV9 in the spinal cord of NHPs ([3]; RNA NGS, spinal cord of NHPs): 0.615 fold

Sequence: GSGHLPQSAQNQQT
- Fold enrichment over AAV9 in the brain of Mice (C57Bl/6) (brain [1]; RNA NGS, brain of C57Bl/6 mice): 0.826 fold
- Fold enrichment over AAV9 in the brain of Mice (BALB/c) (brain [2]; RNA NGS, brain of BALB/c mice): 0.496 fold
- Fold enrichment over AAV9 in the brain of NHPs ([3]; RNA NGS, brain of NHPs): 2.803 fold
- Fold enrichment over AAV9 in the spinal cord of NHPs ([3]; RNA NGS, spinal cord of NHPs): 7.828 fold

Sequence: GSGHMSDLRQNQQT
- Fold enrichment over AAV9 in the brain of Mice (C57Bl/6) (brain [1]; RNA NGS, brain of C57Bl/6 mice): 0.555 fold
- Fold enrichment over AAV9 in the brain of Mice (BALB/c) (brain [2]; RNA NGS, brain of BALB/c mice): 0.328 fold
- Fold enrichment over AAV9 in the brain of NHPs ([3]; RNA NGS, brain of NHPs): 1.073 fold
- Fold enrichment over AAV9 in the spinal cord of NHPs ([3]; RNA NGS, spinal cord of NHPs): 4.291 fold

Sequence: GSGHMTYREKNQQT
- Fold enrichment over AAV9 in the brain of Mice (C57Bl/6) (brain [1]; RNA NGS, brain of C57Bl/6 mice): 1.257 fold
- Fold enrichment over AAV9 in the brain of Mice (BALB/c) (brain [2]; RNA NGS, brain of BALB/c mice): 0.540 fold
- Fold enrichment over AAV9 in the brain of NHPs ([3]; RNA NGS, brain of NHPs): 2.633 fold
- Fold enrichment over AAV9 in the spinal cord of NHPs ([3]; RNA NGS, spinal cord of NHPs): 5.267 fold

Sequence: GSGHNQQVRTAPNT
- Fold enrichment over AAV9 in the brain of Mice (C57Bl/6) (brain [1]; RNA NGS, brain of C57Bl/6 mice): 1.006 fold
- Fold enrichment over AAV9 in the brain of Mice (BALB/c) (brain [2]; RNA NGS, brain of BALB/c mice): 0.580 fold
- Fold enrichment over AAV9 in the brain of NHPs ([3]; RNA NGS, brain of NHPs): 1.885 fold
- Fold enrichment over AAV9 in the spinal cord of NHPs ([3]; RNA NGS, spinal cord of NHPs): 1.022 fold

Sequence: GSGHPYKAAQNQQT
- Fold enrichment over AAV9 in the brain of Mice (C57Bl/6) (brain [1]; [4]): 0.872 fold
- Fold enrichment over AAV9 in the brain of Mice (BALB/c) (brain [2]; [5]): 0.507 fold
- Fold enrichment over AAV9 in the brain of NHPs ([3]; RNA from brain of NHPs, NGS): 1.246 fold
- Fold enrichment over AAV9 in the spinal cord of NHPs [3, 6]: 0.000 fold

Sequence: GSGHSIRTDQNQQT
- Fold enrichment over AAV9 in the brain of Mice (C57Bl/6) (brain [1]; RNA NGS, brain of C57Bl/6 mice): 0.229 fold
- Fold enrichment over AAV9 in the brain of Mice (BALB/c) (brain [2]; RNA NGS, brain of BALB/c mice): 0.148 fold
- Fold enrichment over AAV9 in the brain of NHPs ([3]; RNA NGS, brain of NHPs): 3.074 fold
- Fold enrichment over AAV9 in the spinal cord of NHPs ([3]; RNA NGS, spinal cord of NHPs): 15.600 fold

Sequence: GSGHSPLPQQNQQT
- Fold enrichment over AAV9 in the brain of Mice (C57Bl/6) (brain [1]; RNA NGS, brain of C57Bl/6 mice): 0.387 fold
- Fold enrichment over AAV9 in the brain of Mice (BALB/c) (brain [2]; RNA NGS, brain of BALB/c mice): 0.247 fold
- Fold enrichment over AAV9 in the brain of NHPs ([3]; RNA NGS, brain of NHPs): 1.562 fold
- Fold enrichment over AAV9 in the spinal cord of NHPs ([3]; RNA NGS, spinal cord of NHPs): 0.556 fold

Sequence: GSGHSSHSVQNQQT
- Fold enrichment over AAV9 in the brain of Mice (C57Bl/6) (brain [1]; RNA NGS, brain of C57Bl/6 mice): 0.942 fold
- Fold enrichment over AAV9 in the brain of Mice (BALB/c) (brain [2]; RNA NGS, brain of BALB/c mice): 0.424 fold
- Fold enrichment over AAV9 in the brain of NHPs ([3]; RNA NGS, brain of NHPs): 3.339 fold
- Fold enrichment over AAV9 in the spinal cord of NHPs ([3]; RNA NGS, spinal cord of NHPs): 3.318 fold

Sequence: GSGHSVSGPQNQQT
- Fold enrichment over AAV9 in the brain of Mice (C57Bl/6) (brain [1]; RNA NGS, brain of C57Bl/6 mice): 1.370 fold
- Fold enrichment over AAV9 in the brain of Mice (BALB/c) (brain [2]; RNA NGS, brain of BALB/c mice): 0.619 fold
- Fold enrichment over AAV9 in the brain of NHPs ([3]; RNA NGS, brain of NHPs): 1.993 fold
- Fold enrichment over AAV9 in the spinal cord of NHPs ([3]; RNA NGS, spinal cord of NHPs): 6.259 fold

Sequence: GSGHTNPTRQNQQT
- Fold enrichment over AAV9 in the brain of Mice (C57Bl/6) (brain [1]; RNA NGS, brain of C57Bl/6 mice): 0.726 fold
- Fold enrichment over AAV9 in the brain of Mice (BALB/c) (brain [2]; RNA NGS, brain of BALB/c mice): 0.807 fold
- Fold enrichment over AAV9 in the brain of NHPs ([3]; RNA NGS, brain of NHPs): 1.021 fold
- Fold enrichment over AAV9 in the spinal cord of NHPs ([3]; RNA NGS, spinal cord of NHPs): 0.688 fold

Sequence: GSGHVPNSGLNQQT
- Fold enrichment over AAV9 in the brain of Mice (C57Bl/6) (brain [1]; RNA NGS, brain of C57Bl/6 mice): 1.636 fold
- Fold enrichment over AAV9 in the brain of Mice (BALB/c) (brain [2]; RNA NGS, brain of BALB/c mice): 1.154 fold
- Fold enrichment over AAV9 in the brain of NHPs ([3]; RNA NGS, brain of NHPs): 2.091 fold
- Fold enrichment over AAV9 in the spinal cord of NHPs ([3]; RNA NGS, spinal cord of NHPs): 0.653 fold

Sequence: GSGIAAQRTQNQQT
- Fold enrichment over AAV9 in the brain of Mice (C57Bl/6) (brain [1]; RNA NGS, brain of C57Bl/6 mice): 1.062 fold
- Fold enrichment over AAV9 in the brain of Mice (BALB/c) (brain [2]; RNA NGS, brain of BALB/c mice): 0.754 fold
- Fold enrichment over AAV9 in the brain of NHPs ([3]; RNA NGS, brain of NHPs): 1.665 fold
- Fold enrichment over AAV9 in the spinal cord of NHPs ([3]; RNA NGS, spinal cord of NHPs): 2.691 fold

Sequence: GSGIGSHIPQNQQT
- Fold enrichment over AAV9 in the brain of Mice (C57Bl/6) (brain [1]; [4]): 0.822 fold
- Fold enrichment over AAV9 in the brain of Mice (BALB/c) (brain [2]; [5]): 0.597 fold
- Fold enrichment over AAV9 in the brain of NHPs ([3]; RNA from brain of NHPs, NGS): 1.319 fold
- Fold enrichment over AAV9 in the spinal cord of NHPs [3, 6]: 0.173 fold
